Experimental data taken from article PMC6557688 (FEBS letters, 2019).

Target: recombinant Nudt7 (Mus musculus, UniProt Q99P30)
Test: CoA diphosphohydrolase assay, protein curves
Type: biochemical
Settings: MgCl2 or MnCl2

Chain of recombinant Nudt7 (Q99P30 whole entry): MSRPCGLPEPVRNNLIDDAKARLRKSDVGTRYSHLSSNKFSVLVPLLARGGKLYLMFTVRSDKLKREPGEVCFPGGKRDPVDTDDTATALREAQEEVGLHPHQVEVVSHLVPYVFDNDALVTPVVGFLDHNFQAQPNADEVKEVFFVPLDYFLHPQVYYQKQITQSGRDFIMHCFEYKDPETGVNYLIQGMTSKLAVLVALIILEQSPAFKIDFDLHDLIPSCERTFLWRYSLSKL

## CC(C)(COP(=O)(O)OP(=O)(O)OC[C@H]1O[C@@H](n2cnc3c(N)ncnc32)[C@H](O)[C@@H]1OP(=O)(O)O)[C@@H](O)C(=O)NCCC(=O)NCCS [Free CoA]
  CoA diphosphohydrolase assay, protein curves: the specific activity of Nudt8 against free CoA was comparable to that of Nudt7
